What was measured:
[1] = test system: OPM-2 multiple myeloma cells; experiment: Cell Titre Glo viability, EZH2 inhibitor and lenalidomide matrix, OPM-2; type: cell-based; settings: Inhibitor 1 alone, FIG. 3E
Method: (§1) For all these experiments estimating the combinatorial response between EZH2 inhibitor and lenalidomide, cells were pre-treated with 8 different doses of EZH2 inhibitor for 8 days (Cells were split after 4 days and plated onto EZH2 inhibitor containing plates for an additional 4 days). After pre-treatment, cells were split and seeded onto EZH2 inhibitor and lenaldomide containing plates (compounds plated in a matrix format). Viability was assessed using Cell Titre Glo after 4 days of co-treatment.
(§2) Data are represented as the average percentage of cells in drug-treated wells as compared to DMSO-treated wells from independent duplicate experiments (i and ii). To assess synergy, the data was analyzed in a number of ways including calculation of combination index, bliss independence score and Loewe excess score. […] Data are represented as the mean of independent duplicate experiments ±s.d.

[2] = test system: KMS-27 multiple myeloma cells; experiment: Cell Titre Glo viability, EZH2 inhibitor and lenalidomide matrix, KMS-27; type: cell-based; settings: Inhibitor 1 alone, FIG. 4E
Method: as §1, §2

[3] = test system: OPM-2 subcutaneous xenograft; experiment: OPM-2 subcutaneous xenograft combination experiment (lenalidomide, dexamethasone); type: in vivo, BALB/C nude mouse
Method: (§3) The experiment was carried out to assess the impact of Inhibitor 1 and lenalidomide in combination. Inhibitor 1 was dosed twice daily at 200 mg/kg, administered subcutaneously (200 mpk SC BID) and lenalidomide was dosed intraperitoneally once a day at 25 mg/kg (25 mpk IP QD) for the course of the entire study. Tumor volume was plotted as a function of time. Data are represented as the mean tumor volume per cohort and time point ±s.d. Bodyweight was assessed for vehicle and compound-treated animals for the experiment described in FIG. 6A. […] Data are represented as described in FIG. 6A. Vehicle and compound-treated tumors were collected at the end of the study and analyzed for global H3K27me3 and total H3 levels using an MSD ELISA assay.
Tumor volume was plotted as a function of time.

H3K27me3 [4] = experiment: MSD ELISA of global H3K27me3 and total H3 in OPM-2 tumors (lenalidomide study); type: in vivo, BALB/C nude mouse; settings: end of study, total H3 as normalizer; Inhibitor 1 vs vehicle control, combination vs lenalidomide alone; FIG. 6C
Method: as §3
Total H3 was used as a normalizer. Data are represented as the mean of data from 4 subjects±s.e.m.

H3K27me3 [5] = experiment: MSD ELISA of global H3K27me3 and total H3 in OPM-2 tumors (Panobinostat study); type: in vivo, BALB/C nude mouse; settings: Inhibitor 1 200 mpk SC BID vs vehicle control, end of study
Method: FIG. 11A is an in vivo combination experiment using an OPM-2 subcutaneous xenograft BALB/C nude mouse model (n=8 per cohort). The experiment was carried out to assess the impact of Inhibitor 1 and Panobinostat in combination. Inhibitor 1 was dosed twice daily at 200 mg/kg administered subcutaneously (200 mpk SC BID) and Panobinostat was dosed intraperitoneally once a day. Panobinostat was dosed at 5 mg/kg QD (DO-D4); 2.5 mg/kg QD (D7-D9, D13, D17 and D19), the dose and frequency of dosing was reduced to manage the toxicity effects. Tumor volume was plotted as a function of time. Data are represented as the mean tumor volume per cohort and time point±s.d. Bodyweight was assessed for vehicle and compound-treated animals for the experiment described in FIG. 11B. Data are represented as described in FIG. 11C. Vehicle and Inhibitor 1-treated tumors were collected at the end of the study and analyzed for global H3K27me3 and total H3 levels using an MSD ELISA assay. […] Data are represented as the mean of data from 4 subjects±s.e.m.

[6] = test system: 19 multiple myeloma cell lines; experiment: Combination with standard of care agents in multiple myeloma cell lines; type: cell-based; settings: FIG. 16
Description: FIG. 16 summarizes the synergies observed between various standard of care agents as described above in 19 multiple myeloma cell lines.

KARPAS-422 xenograft = settings: mouse, in vivo, po, 100 mg/kg
Method: Tumor volume measurements were recorded at indicated days post initial dose.* CHOP: Cyclophosphamide, 40 mg/kg, i.v.; doxorubicin, 3.3 mg/kg, i.v.; vincristine, 0.5 mg/kg, i.v.; and prednisone, 0.2 mg/kg, every day for 5 days, p.o.

With `CCS(=O)(=O)N1CCC([C@@H](C)n2c(C)c(C(=O)NCc3c(OC)cc(C)[nH]c3=O)c3ccccc32)CC1` [Inhibitor 1] the “effect of single agent on cell viability” value [1] was “dose-dependent effect”, the “effect of single agent on cell viability” value [2] was “dose-dependent effect” and the “single agent activity in xenograft model” value ([3]; Inhibitor 1 200 mpk SC BID alone) was “little single agent activity”. For the same compound, the “effect on in vivo anti-tumor activity of dexamethasone” value ([3]; OPM-2 xenograft, FIG. 13) was “increases”, the “levels of H3K27me3 in tumors” value (H3K27me3 [4]) was “marked reduction” and the “levels of H3K27me3 in tumors” value (H3K27me3 [5]) was “marked reduction”. For the same compound, the “combinatorial activity with standard of care agents” value [6] was “broadly combines with various different standard of care agents”.
For `COc1cc(C)[nH]c(=O)c1CNC(=O)c1c(C)n(C(C)C2CCN(CC(F)(F)F)CC2)c2ccccc12` (stereo not drawn) [Inhibitor 3], the “adverse effects / toxicity” value (KARPAS-422 xenograft) was “did not show any adverse effects and did not add to CHOP toxicity”.
In the case of `Nc1cccc2c1CN(C1CCC(=O)NC1=O)C2=O` (stereo not drawn) [Lenalidomide, lenalidomide, reference compound], the “levels of H3K27me3 in tumors” value (H3K27me3 [4]) is reported as “did not affect”.

Reference: patent publication US20200093815A1, “COMBINATIONS OF EZH2 INHIBITORS WITH FURTHER AGENTS FOR USE IN THE TREATMENT OF CANCER” (Constellation Pharmaceuticals, Inc., priority 2015, published 2020)
